Data: patent US20250170267A1, “ANTIBODY-DRUG CONJUGATE PRECURSOR AND INTERMEDIATE FOR SYNTHESIS THEREOF” (UBE Corporation, priority 2022, published 2025)
Read-outs that look alike come from different tables or passages of the source. Numbered stars: 1 amine (or outer) side, 2 acyl side, 3 side chain; on linkers, the order of the positions; unused ones are H or OH. Square brackets hold non-standard residues; d marks the D form. Peptide text beside a SMILES is read from it. * marks the point of attachment. X7 = C[C@@H](N*)[C@@H](OC(=O)OCc1cn(C2OC(C(=O)O)C(O)C(O)C2O)nn1)c1ccccc1; βAla(2S-maleimido) = O=C1C=CC(=O)N1[C@@H](CN[*:1])C(=O)[*:2]; Dolaproine = CO[C@@H]([C@@H]1CCCN1)[C@@H](C)C(=O)O; X5 = C[C@@H](N[*:1])[C@@H](OC(=O)[*:2])c1ccccc1; NH(CH2CH2O)8Me = COCCOCCOCCOCCOCCOCCOCCOCCN*; Dil = CC[C@H](C)[C@H](NC)[C@@H](CC(=O)O)OC; X3 = C[C@@H](N*)[C@@H](OP(=O)(O)O)c1ccccc1; PABC = O=C(OCc1ccc(N[*:1])cc1)[*:2]; X1 = C[C@@H](N*)[C@@H](O)c1ccccc1; hSer(lactone) = O=C1OCC[C@@H]1N*; Cit = NC(=O)NCCC[C@H](N)C(=O)O; PEG4 = NCCOCCOCCOCCOCCC(=O)O; NMeV = CN[C@H](C(=O)O)C(C)C; X2 = O=C1CC[C@@H](C(=O)*)O1; X8 = c1[nH]nnc1CN*

Assays:
porcine tubulin = target: T1, porcine tubulin (Sus scrofa, UniProt P02550+P02554); assay: Tubulin polymerization inhibition test; assay type: biochemical
T1 construct: purchased Cytoskeleton, Inc. BK011P
Description: For measuring the tubulin polymerization inhibitory action, Tubulin Polymerization Assay Kit (manufactured by Cytoskeleton, Inc., BK011P) was used. A PIPES buffer containing porcine tubulin, GTP, MgCl2, EGTA, Glycerol, and a fluorescent reporter was prepared under ice-cooling as a reaction solution. The reaction solution was ice-cooled until it was used. A test compound solution was prepared by an aqueous solution containing 1.5% DMSO, and added to a 96 well plate (manufactured by Corning Inc., 3686) at 5 μL/well. The reaction solution was added thereto at 50 μL/well, the plate was placed in a microplate reader (FlexStation 3, manufactured by Molecular Device, LLC) in which the internal temperature was set to 37° C. in advance, and the fluorescence intensity measurement (excitation wavelength: 360 nm, detection wavelength: 420 nm) of each well was started. The fluorescence intensity was measured once every minute, and the measurement was continued for 60 minutes.
The tubulin polymerization inhibition rate (%) was calculated by the following equation.
[formula] • a: average amount of fluorescence intensity increase in vehicle-treated well (n=2) • b: average amount of fluorescence intensity increase in test compound-treated well (n=2)
Amount of fluorescence intensity increase: (average fluorescence intensity after 51 to 60 minutes from measurement start)−(average fluorescence intensity after 1 to 6 minutes from measurement start)

human liver Cathepsin B = target: T2, human liver Cathepsin B (Homo sapiens, UniProt P07858); assay: Metabolism test using human liver Cathepsin B; assay type: in vitro ADME; details: 37° C., 24 hours, released drug, LC-MS/MS
T2 construct: human liver Cathepsin B (manufactured by Sigma-Aldrich Co. LLC, Cat No. C8571 25 μg/vial); purchased Sigma-Aldrich Co. LLC C8571; host or cells: human liver
Description: To human liver Cathepsin B (manufactured by Sigma-Aldrich Co. LLC, Cat No. C8571 25 μg/vial)(corresponding to 400 Unit/mL)(5 μL), X10 Catabolic Buffer (manufactured by SEKISUI-Xenotech, LLC., K5200)(10 μL), 2.5 mM Bovine Serum Albumin (manufactured by FUJIFILM Wako Pure Chemical Corporation, Cat No. 012-15093)(5 μL), and distilled water (manufactured by FUJIFILM Wako Pure Chemical Corporation, for HPLC)(55 μL) was added 1.2 μM test compound (antibody-drug conjugate prepared in ADC Production examples)(25 μL) dissolved in PBS to prepare a reaction solution. After the reaction solution was incubated at 37° C. for 24 hours, “an antitumor drug molecule or an analog thereof, or a derivative thereof” released from the antibody-drug conjugate into the reaction solution was quantified by LC-MS/MS (high performance liquid chromatography/mass spectrometer system) under the following conditions. LC-MS/MS analysis conditions
(§1) LC: LC20 or LC30 HPLC system manufactured by Shimadzu Corporation
(§2) Column: Phenomenex Kinetex C18 (50×2.1 mm, 2.6 μm)
(§3) Column temperature: 40° C.
(§4) Mobile phase A: 0.1% aqueous solution of formic acid, Mobile phase B: 0.1% solution of formic acid in a mixture of 50% acetonitrile/methanol
(§5) Mode: Positive or Negative
(§6) The release rate (%) of drug was calculated by the following equation.

human liver lysosome = assay: Metabolism test using human liver lysosomal fraction; assay type: in vitro ADME; details: 37° C., 24 hours, released drug, LC-MS/MS
Description: To a reaction composition solution (X10 Catabolic Buffer (manufactured by SEKISUI-Xenotech, LLC., K5200))(60 μL) in which human liver lysosome (manufactured by SEKISUI-Xenotech, LLC., Cat No. H610.L 2.5 mg/mL)(corresponding to 0.125 mg of protein) was suspended and distilled water (manufactured by FUJIFILM Wako Pure Chemical Corporation, for HPLC)(10 μL) was added 1.2 μM test compound (antibody-drug conjugate produced in ADC Production examples)(25 μL) dissolved in PBS to prepare a reaction solution. After the reaction solution was incubated at 37° C. for 24 hours, “an antitumor drug molecule or an analog thereof, or a derivative thereof” released from the antibody-drug conjugate into the reaction solution was quantified by LC-MS/MS (high performance liquid chromatography/mass spectrometer system) under the following conditions. LC-MS/MS analysis conditions
as §1, §2, §3, §4, §5, §6

[1] = porcine tubulin, 37° C., fluorescence over 60 minutes, read-out: IC50 value (tubulin polymerization inhibition)

T1 sequence (P02550 whole entry): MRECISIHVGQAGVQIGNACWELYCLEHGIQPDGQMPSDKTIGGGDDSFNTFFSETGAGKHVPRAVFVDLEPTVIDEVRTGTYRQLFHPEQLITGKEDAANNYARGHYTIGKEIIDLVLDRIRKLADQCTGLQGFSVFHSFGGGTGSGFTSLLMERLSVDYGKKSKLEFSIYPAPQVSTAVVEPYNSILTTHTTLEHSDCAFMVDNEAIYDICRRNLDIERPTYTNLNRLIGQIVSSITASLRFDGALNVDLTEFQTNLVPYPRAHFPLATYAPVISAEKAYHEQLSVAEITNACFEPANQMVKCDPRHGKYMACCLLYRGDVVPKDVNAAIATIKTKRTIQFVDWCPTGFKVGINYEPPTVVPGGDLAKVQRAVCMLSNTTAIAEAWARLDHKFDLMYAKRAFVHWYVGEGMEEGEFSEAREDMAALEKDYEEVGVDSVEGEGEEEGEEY
T1 sequence (P02554 whole entry): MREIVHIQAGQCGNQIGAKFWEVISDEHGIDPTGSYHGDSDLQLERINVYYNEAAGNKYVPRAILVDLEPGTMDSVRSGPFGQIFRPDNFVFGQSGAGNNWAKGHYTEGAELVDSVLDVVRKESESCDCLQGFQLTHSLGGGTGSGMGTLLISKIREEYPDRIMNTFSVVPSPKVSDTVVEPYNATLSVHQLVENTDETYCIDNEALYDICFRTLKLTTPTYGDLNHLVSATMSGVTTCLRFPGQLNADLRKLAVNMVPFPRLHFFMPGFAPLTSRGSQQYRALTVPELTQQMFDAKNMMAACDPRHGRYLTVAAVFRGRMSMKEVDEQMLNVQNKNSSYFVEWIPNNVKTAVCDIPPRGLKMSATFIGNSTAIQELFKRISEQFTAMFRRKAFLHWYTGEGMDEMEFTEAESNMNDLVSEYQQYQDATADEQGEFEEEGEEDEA

## CC[C@H](C)[C@@H]([C@@H](CC(=O)N1CCC[C@H]1[C@H](OC)[C@@H](C)C(=O)N[C@H](C)[C@@H](O)c1ccccc1)OC)N(C)C(=O)[C@@H](NC(=O)[C@H](C(C)C)N(C)C)C(C)C [Example U-010]
Porcine tubulin
  IC50: ≤ 3 µM

## CC[C@H](C)[C@@H]([C@@H](CC(=O)N1CCC[C@H]1[C@H](OC)[C@@H](C)C(=O)N[C@H](C)[C@@H](O)c1ccccc1)OC)N(C)C(=O)[C@@H](NC(=O)[C@H](C(C)C)N(C)C(=O)OCc1ccc(NC(=O)[C@H](CCCNC(N)=O)NC(=O)[C@@H](NC(=O)[C@H](CC(=O)N[C@H]2CCOC2=O)NC(=O)CCOCCOCCOCCOCCNC(=O)[C@H](CNC(=O)[C@@H]2CCC(=O)O2)N2C(=O)C=CC2=O)C(C)C)cc1)C(C)C [Example 7] (X2-[βAla(2S-maleimido)][PEG4]D(hSer(lactone))V[Cit][PABC][NMeV]V[Dil][Dolaproine]-X1)
Human liver Cathepsin B
  Release rate (%) of drug from ADC: 65%
Human liver lysosome
  Release rate (%) of drug from ADC: 86%

## CC[C@@]1(OC(=O)OCc2ccc(NC(=O)[C@H](CCCNC(N)=O)NC(=O)[C@@H](NC(=O)[C@H](CC(=O)N[C@H]3CCOC3=O)NC(=O)CCOCCOCCOCCOCCNC(=O)[C@H](CNC(=O)CCP(=O)(O)O)N3C(=O)C=CC3=O)C(C)C)cc2)C(=O)OCc2c1cc1n(c2=O)Cc2c-1nc1cc(F)c(C)c3c1c2[C@@H](NC(=O)CO)CC3 [Example 11]
Human liver Cathepsin B
  Release rate (%) of drug from ADC: 30%
Human liver lysosome
  Release rate (%) of drug from ADC: 64%

## CC[C@H](C)[C@@H]([C@@H](CC(=O)N1CCC[C@H]1[C@H](OC)[C@@H](C)C(=O)N[C@H](C)[C@@H](OC(=O)NCc1c[nH]nn1)c1ccccc1)OC)N(C)C(=O)[C@@H](NC(=O)[C@@H](NC)C(C)C)C(C)C [Example U-021] (H-[NMeV]V[Dil][Dolaproine][X5]-X8)
Porcine tubulin; [1]
  IC50: ≤ 3 µM

## CC[C@H](C)[C@@H]([C@@H](CC(=O)N1CCC[C@H]1[C@H](OC)[C@@H](C)C(=O)N[C@H](C)[C@@H](OP(=O)(O)O)c1ccccc1)OC)N(C)C(=O)[C@@H](NC(=O)[C@@H](NC)C(C)C)C(C)C [Example U-030] (H-[NMeV]V[Dil][Dolaproine]-X3)
Porcine tubulin; [1]
  IC50: ≤ 3 µM

## CC[C@H](C)[C@@H]([C@@H](CC(=O)N1CCC[C@H]1[C@H](OC)[C@@H](C)C(=O)N[C@H](C)[C@@H](O)c1ccccc1)OC)N(C)C(=O)[C@@H](NC(=O)[C@H](C(C)C)N(C)CCc1ccc(N)cc1F)C(C)C [Example U-016]
Porcine tubulin; [1]
  IC50: ≤ 3 µM

## CC[C@H](C)[C@@H]([C@@H](CC(=O)N1CCC[C@H]1[C@H](OC)[C@@H](C)C(=O)N[C@H](C)[C@@H](O)c1ccccc1)OC)N(C)C(=O)[C@@H](NC(=O)[C@H](C(C)C)N(C)CCCC(=O)N[C@H]1CCc2c(C)c(F)cc3nc4c(c1c23)Cn1c-4cc2c(c1=O)COC(=O)[C@]2(O)CC)C(C)C [Example U-017]
Porcine tubulin
  IC50: ≤ 3 µM

## CC[C@H](C)[C@@H]([C@@H](CC(=O)N1CCC[C@H]1[C@H](OC)[C@@H](C)C(=O)N[C@H](C)[C@@H](OC(=O)NCCOCCOCCOCCOCCOCCOCCOCCOC)c1ccccc1)OC)N(C)C(=O)[C@@H](NC(=O)[C@@H](NC)C(C)C)C(C)C [Example U-011] (H-[NMeV]V[Dil][Dolaproine][X5]-{NH(CH2CH2O)8Me})
Porcine tubulin; [1]
  IC50: ≤ 3 µM

## CC[C@@]1(O)C(=O)OCc2c1cc1n(c2=O)Cc2c-1nc1cc(F)c(C)c3c1c2[C@@H](NC(=O)COP(=O)(O)OCc1ccc(NC(=O)[C@H](CCCNC(N)=O)NC(=O)[C@@H](NC(=O)[C@H](CC(=O)N[C@H]2CCOC2=O)NC(=O)CCOCCOCCOCCOCCNC(=O)[C@H](CNC(=O)CCP(=O)(O)O)N2C(=O)C=CC2=O)C(C)C)cc1)CC3 [Example 12]
Human liver Cathepsin B
  Release rate (%) of drug from ADC: 106%
Human liver lysosome
  Release rate (%) of drug from ADC: 3.5%

## CC[C@H](C)[C@@H]([C@@H](CC(=O)N1CCC[C@H]1[C@H](OC)[C@@H](C)C(=O)N[C@H](C)[C@@H](OC(=O)OCc1cn(C2OC(C(=O)O)C(O)C(O)C2O)nn1)c1ccccc1)OC)N(C)C(=O)[C@@H](NC(=O)[C@@H](NC)C(C)C)C(C)C (stereo partly shown) [Example U-020] (H-[NMeV]V[Dil][Dolaproine]-X7)
Porcine tubulin; [1]
  IC50: ≤ 3 µM
